Counter-ions that a name gives are not always drawn. Like-named read-outs stand apart in the source and are kept apart here.
How the values were obtained:
human BACE1 (1-460):Fc = human BACE1 (1-460):Fc (Homo sapiens (Human), UniProt P56817); test: BACE1 FRET Assay; type: biochemical; conditions: Mean ± SEM; purified recombinant huBACE1:Fc, FRET substrate, pH 4.6
beta-secretase = beta-secretase (Mus musculus (Mouse), UniProt P56818); test: In Vivo Inhibition of Beta-Secretase in PDAPP mice
[1] = molecular target: native endogenous human BACE1 (Homo sapiens (Human), UniProt P56817); test: HEK293Swe Whole Cell Assay (Abeta lowering, ELISA); type: cell-based; conditions: HEK293/APP751sw cells, Mean ± SEM
native endogenous human BACE1, sequence (P56817 46-501): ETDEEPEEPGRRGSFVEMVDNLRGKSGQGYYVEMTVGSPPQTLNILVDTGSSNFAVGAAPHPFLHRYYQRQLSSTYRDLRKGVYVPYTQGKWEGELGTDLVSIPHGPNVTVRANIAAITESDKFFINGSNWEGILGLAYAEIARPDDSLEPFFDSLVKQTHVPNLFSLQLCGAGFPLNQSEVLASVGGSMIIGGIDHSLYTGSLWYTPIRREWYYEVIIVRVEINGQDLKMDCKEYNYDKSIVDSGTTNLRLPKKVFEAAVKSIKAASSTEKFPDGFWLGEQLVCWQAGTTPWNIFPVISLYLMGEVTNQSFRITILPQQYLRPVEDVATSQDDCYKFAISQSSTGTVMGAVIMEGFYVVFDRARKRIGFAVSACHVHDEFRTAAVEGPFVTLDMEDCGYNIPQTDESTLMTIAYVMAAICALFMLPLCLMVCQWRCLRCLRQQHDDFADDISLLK

[2] = molecular target: native, endogenous murine BACE1 (Mus musculus (Mouse), UniProt P56818); test: PDAPP Primary Neuronal Assay (Abeta lowering, ELISA); type: cell-based; conditions: primary cortical neurons from PDAPP embryos, 24 h, Mean ± SEM
native, endogenous murine BACE1, sequence (P56818 46-501): as the sequence (P56817 46-501) above, with P6S, V162I, L165I, S180T, V182A, I340V, L393A, Q443H counted along it

[3] = 10 mg/kg oral dose, 3 hours after administration, compared to vehicle-treated mice
[4] = 30 mg/kg oral dose, 3 hours after administration, compared to vehicle-treated mice
[5] = Abeta 1-40 in conditioned media, read-out: HEK 293 Swe A-beta (1-40) ELISA IC50
[6] = Abeta 1-40, read-out: PDAPP Neuron A-beta (1-40) ELISA IC50
[7] = Abeta 1-42, read-out: PDAPP Neuron A-beta (1-42) ELISA IC50
[8] = 10 mg/kg oral dose, 3 hours after administration, CSF
[9] = 10 mg/kg oral dose, 3 hours, young female PDAPP mice, compared to vehicle-treated mice

beta-secretase, sequence (P56818 46-501): as the sequence (P56817 46-501) above, with P6S, V162I, L165I, S180T, V182A, I340V, L393A, Q443H counted along it
human BACE1 (1-460):Fc, sequence (P56817 22-460): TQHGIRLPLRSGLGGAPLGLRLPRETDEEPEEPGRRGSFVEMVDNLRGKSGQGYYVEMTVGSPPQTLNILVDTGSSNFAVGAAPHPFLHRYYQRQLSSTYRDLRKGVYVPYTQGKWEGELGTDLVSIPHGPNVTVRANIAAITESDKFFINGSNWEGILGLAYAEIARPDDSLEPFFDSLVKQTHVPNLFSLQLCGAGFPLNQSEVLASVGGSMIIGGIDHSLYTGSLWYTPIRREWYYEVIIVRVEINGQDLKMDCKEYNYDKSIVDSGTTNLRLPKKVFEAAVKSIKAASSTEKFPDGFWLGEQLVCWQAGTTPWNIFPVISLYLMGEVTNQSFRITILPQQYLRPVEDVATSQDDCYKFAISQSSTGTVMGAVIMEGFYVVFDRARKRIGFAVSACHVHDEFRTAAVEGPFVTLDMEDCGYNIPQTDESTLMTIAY

IC50 (human BACE1 (1-460):Fc) [nM]	Abeta 1-x peptide levels reduced in brain cortex (beta-secretase; [3])	Abeta 1-x peptide levels reduced in brain hippocampus (beta-secretase; [3])	Abeta 1-x peptide levels reduced in brain cortex (beta-secretase; [4]) [%]	Abeta 1-x peptide levels reduced in brain hippocampus (beta-secretase; [4]) [%]	IC50 [1, 5] [nM]	IC50 ([1]; Abeta 1-42 in conditioned media, read-out: HEK 293 Swe A-beta (1-42) ELISA IC50) [nM]	IC50 [2, 6] [nM]	IC50 [2, 7] [nM]	CSF Abeta 1-x levels reduced (beta-secretase; [8])	Reduction of CSF sAPPbeta (beta-secretase; [8]) [%]	C99 levels reduced in brain cortex (beta-secretase; [9]) [%]	C99 levels reduced in brain hippocampus (beta-secretase; [9]) [%]	sAPPb levels reduced in brain cortex (beta-secretase; [9]) [%]	sAPPb levels reduced in brain hippocampus (beta-secretase; [9]) [%]	Compound
166	–	–	–	–	–	–	–	–	–	–	–	–	–	–	NC1=N[C@@]2(c3ccc(F)s3)CN(c3ncccn3)C[C@H]2CS1 [Example 30, [(4aR,7aR)-7a-(5-Fluorothiophen-2-yl)-6-(pyrimidin-2-yl)-4,4a,5,6,7,7a-hexahydropyrrolo[3,4-d][1,3]thiazin-2-amine hydrochloride]
–	approximately 23%	approximately 18%	~63	~51	–	–	–	–	–	–	–	–	–	–	Cl.N#Cc1ccc([C@]23CN(c4ncc(F)cn4)C[C@H]2CSC(N)=N3)s1 [Example 31, 5-[(4aR,7aR)-2-Amino-6-(5-fluoropyrimidin-2-yl)-4a,5,6,7-tetrahydropyrrolo[3,4-d][1,3]thiazin-7a(4H)-yl]thiophene-2-carbonitrile hydrochloride]
91.2	–	–	–	–	345	356	378	245	–	–	–	–	–	–	NC1=N[C@@]2(c3ccc(F)s3)CN(c3ncc(F)cn3)C[C@H]2CS1 [Example 32, [(4aR,7aR)-6-(5-Fluoropyrimidin-2-yl)-7a-(5-fluorothiophen-2-yl)-4,4a,5,6,7,7a-hexahydropyrrolo[3,4-d][1,3]thiazin-2-amine hydrochloride]
64.4	approximately 62%	approximately 51%	–	–	233	–	116	103	approximately 80%	22	~63	~58	~34	~37	Cl.NC1=N[C@@]2(c3ccccc3)CN(c3ncc(F)cn3)C[C@H]2CS1 [Example 1, (4aR,7aS)-6-(5-Fluoropyrimidin-2-yl)-7a-phenyl-4,4a,5,7-tetrahydropyrrolo[3,4-d][1,3]thiazin-2-amine hydrochloride]

Reference: patent publication US8772282B2, “Tetrahydropyrrolothiazine compounds” (Eli Lilly and Company, priority 2012, dated 2014)
